From patent US9708334B2, “Substituted 2,4,5,6-tetrahydropyrrolo[3,4-c]pyrazole and 4,5,6,7-tetrahydro-2H-pyrazolo[4,3-c]pyridine compounds as GlyT1 inhibitors” (DART NEUROSCIENCE (CAYMAN) LTD., priority 2014, dated 2017)

What follows are molecules tested against T1, GlyT1 (Homo sapiens, UniProt P48067) (assay: Glycine Transporter 1 (GlyT1) uptake assay, scintillation proximity assay of [14C]-glycine uptake). Conditions: SPA, four parameter logistic fit, read-out: GlyT1 (pIC50) (converted).
T1 construct: expressed in transfected cells
T1 sequence (P48067 1-706): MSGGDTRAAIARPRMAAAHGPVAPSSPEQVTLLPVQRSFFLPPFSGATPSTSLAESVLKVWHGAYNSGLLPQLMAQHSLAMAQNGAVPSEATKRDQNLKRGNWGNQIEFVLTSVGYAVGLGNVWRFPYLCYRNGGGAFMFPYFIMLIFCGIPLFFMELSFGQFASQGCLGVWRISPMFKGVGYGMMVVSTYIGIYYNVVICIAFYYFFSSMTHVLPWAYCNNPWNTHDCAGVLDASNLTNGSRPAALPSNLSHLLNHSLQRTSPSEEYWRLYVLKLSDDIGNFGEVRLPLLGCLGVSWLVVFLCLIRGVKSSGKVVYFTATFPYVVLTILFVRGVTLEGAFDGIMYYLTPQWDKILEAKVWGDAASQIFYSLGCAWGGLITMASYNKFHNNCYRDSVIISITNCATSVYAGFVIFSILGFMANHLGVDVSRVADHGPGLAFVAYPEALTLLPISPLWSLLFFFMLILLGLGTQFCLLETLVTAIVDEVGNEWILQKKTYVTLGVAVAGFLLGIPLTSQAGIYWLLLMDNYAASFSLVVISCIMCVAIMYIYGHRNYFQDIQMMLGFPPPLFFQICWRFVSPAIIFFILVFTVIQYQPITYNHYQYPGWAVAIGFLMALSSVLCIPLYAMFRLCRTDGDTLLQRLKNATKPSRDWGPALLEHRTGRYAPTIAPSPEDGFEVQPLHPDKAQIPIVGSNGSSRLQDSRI
Format: cell-based
How it was run: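 IC50 values derive from four-parameter logistic curves fitted to dose-response data. Uptake of [14C]-glycine measured in scintillation proximity format.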

IC50 | Compound
100 to 1000 nM | C[C@H](Oc1ccc(C#N)cc1C(=O)N1Cc2cn(CC3CCC3)nc2C1)C(F)(F)F [Example 401, 3-[2-(Cyclobutylmethyl)-2H 4H 5H 6H-pyrrolo[3,4-c]pyrazole-5-carbonyl]-4-{[(2S)-1 1 1-trifluoropropan-2-yl]oxy}benzonitrile]
< 100 nM | C[C@H](Oc1ccc(C#N)cc1C(=O)N1Cc2cn(-c3ccnc(C4CC4)c3)nc2C1)C(F)(F)F [Example 404, 3-[2-(2-Cyclopropylpyridin-4-yl)-2H 4H 5H 6H-pyrrolo[3,4-c]pyrazole-5-carbonyl]-4-{[(2S)-1 1 1-trifluoropropan-2-yl]oxy}benzonitrile]
< 100 nM | CC(C)Oc1ccc(C#N)cc1C(=O)N1Cc2cn(-c3ccnc(C4CC4)c3)nc2C1 [Example 405, 3-[2-(2-Cyclopropylpyridin-4-yl)-2H 4H 5H 6H-pyrrolo[3,4-c]pyrazole-5-carbonyl]-4-(propan-2-yloxy)benzonitrile]
< 100 nM | CC(C)Oc1ccc(S(C)(=O)=O)cc1C(=O)N1Cc2cn(C3CCCC3)nc2C1 [Example 406, 2-Cyclopentyl-5-[5-methanesulfonyl-2-(propan-2-yloxy)benzoyl]-2H 4H 5H 6H-pyrrolo[3,4-c]pyrazole]
< 100 nM | C[C@H](Oc1ccc(S(C)(=O)=O)cc1C(=O)N1Cc2cn(CC3CCC3)nc2C1)C(F)(F)F [Example 409]
< 100 nM | CC(C)Oc1ccc(S(C)(=O)=O)cc1C(=O)N1Cc2cn(CC3CCC3)nc2C1 [Example 410, 2-(Cyclobutylmethyl)-5-[5-methanesulfonyl-2-(propan-2-yloxy)benzoyl]-2H 4H 5H 6H-pyrrolo[3,4-c]pyrazole]
< 100 nM | CCS(=O)(=O)c1ccc(OC(C)C)c(C(=O)N2Cc3cn(C4CCCC4)nc3C2)c1 [Example 415, 2-Cyclopentyl-5-[5-(ethanesulfonyl)-2-(propan-2-yloxy)benzoyl]-2H 4H 5H 6H-pyrrolo[3,4-c]pyrazole]

Further lines, the molecule ahead of its results:

Compound | IC50
C[C@H](Oc1ccc(C#N)cc1C(=O)N1Cc2cn(C3CCCCC3)nc2C1)C(F)(F)F [Example 402, 3-{2-Cyclohexyl-2H 4H 5H 6H-pyrrolo[3,4-c]pyrazole-5-carbonyl}-4-{[(2S)-1 1 1-trifluoropropan-2-yl]oxy}benzonitrile] | 100 to 1000 nM
CC(C)Oc1ccc(S(C)(=O)=O)cc1C(=O)N1Cc2cn(C3CCCCC3)nc2C1 [Example 403, 2-Cyclohexyl-5-[5-methanesulfonyl-2-(propan-2-yloxy)benzoyl]-2H 4H 5H 6H-pyrrolo[3,4-c]pyrazole] | < 100 nM
CC(C)Oc1ccc(C#N)cc1C(=O)N1Cc2cn(C3CCOCC3)nc2C1 [Example 408, 3-[2-(Oxan-4-yl)-2H 4H 5H 6H-pyrrolo[3,4-c]pyrazole-5-carbonyl]-4-(propan-2-yloxy)benzonitrile] | 100 to 1000 nM
CC(C)Oc1ccc(C#N)cc1C(=O)N1Cc2cn(CC3CCC3)nc2C1 [Example 411, 3-[2-(Cyclobutylmethyl)-2H 4H 5H 6H-pyrrolo[3,4-c]pyrazole-5-carbonyl]-4-(propan-2-yloxy)benzonitrile] | 100 to 1000 nM
C[C@H](Oc1ccc(C#N)cc1C(=O)N1Cc2cn(C3CCOCC3)nc2C1)C(F)(F)F [Example 412, 3-[2-(Oxan-4-yl)-2H 4H 5H 6H-pyrrolo[3,4-c]pyrazole-5-carbonyl]-4-{[(2S)-1 1 1-trifluoropropan-2-yl]oxy}benzonitrile] | < 100 nM
C[C@H](Oc1ccc(S(C)(=O)=O)cc1C(=O)N1Cc2cn(CC3CCCC3)nc2C1)C(F)(F)F [Example 413, 2-(Cyclopentylmethyl)-5-(5-methanesulfonyl-2-{[(2S)-1 1 1-trifluoropropan-2-yl]oxy}benzoyl)-2H 4H 5H 6H-pyrrolo[3,4-c]pyrazole] | < 100 nM
C[C@H](Oc1ccc(C#N)cc1C(=O)N1Cc2cn(CC3CCCC3)nc2C1)C(F)(F)F [Example 414, 3-[2-(Cyclopentylmethyl)-2H 4H 5H 6H-pyrrolo[3,4-c]pyrazole-5-carbonyl]-4-{[(2S)-1 1 1-trifluoropropan-2-yl]oxy}benzonitrile] | 100 to 1000 nM
